{"source": "patent US20170216426A1", "about": "“COMPOSITIONS AND METHODS FOR TRANSIENT IMMUNE RESPONSE MODULATION DURING VACCINATION” (priority 2014, published 2017)", "molecules": {"B1": {"name": "CD40L: CD40 ligand conjugated to liposomes (protein, UniProt P29965 113-261, looked up)", "CD40 ligand, soluble form": "MQKGDQNPQIAAHVISEASSKTTSVLQWAEKGYYTMSNNLVTLENGKQLTVKRQGLYYIYAQVTFCSNREASSQAPFIASLCLKSPGRFERILLRAANTHSSAKPCGQQSIHLGGVFELQPGASVFVNVTDPSQVSHGTGFTSFGLLKL", "modifications": "conjugated to liposomes"}}, "key": {"[1]": {"test": "Humoral responses after chloroquine treatment (FIG. 17)", "format": "in vivo"}, "[2]": {"test_system": "3H9 mice", "test": "DNA avidity index of single immature/T1 B-cell N-cultures from treated 3H9 mice (ELISA)", "format": "in vivo", "protocol": "Single immature/T1 B cells and MF B cells from unimmunized B6 and Myd88^−/− mice, and control- and chloroquine-treated 3H9 mice were expanded in the presence of NB-21.2D9 feeder cells (N-cultures). Briefly, single immature/T1 B cells and MF B cells were directly sorted into each well of 96-well plates and cultured in the presence of exogenous recombinant IL-4 (2 ng/ml, Peprotech) and CD154-/BAFF-/IL-21-expressing NB-21.2D9 cells in RPMI 1640 (Invitrogen) supplemented with 10% HyClone FBS (Thermo scientific), 2-mercaptoethanol (5.5×10^−5 M), penicillin (100 units/ml), streptomycin (100 μg/ml), HEPES (10 mM), sodiumpyruvate (1 mM), and MEM nonessential amino acid (1×; all Invitrogen). Two thirds of culture media were replaced with fresh media daily from day 2 to day 8. On days 9-10, culture supernatants were harvested for ELISA determinations.\nConcentrations of total IgG in culture supernatants were determined by standard ELISA. Briefly, 96-well ELISA plates (Corning) were coated with anti-mouse Igκ Ab and anti-mouse Igλ Ab (2 μg/ml each; Southern Biotech) in carbonate buffer for overnight. After washing, plates were blocked with PBS containing 0.5% BSA for 1 h. Diluted samples (at 1:100 and 1:1,000 dilutions in PBS containing 0.5% BSA and 0.1% Tween-20) and serially diluted standard anti-DNA mAb (HYB331-01; Abcam) were then applied to the plates and incubated for overnight. After washing, HRP-conjugated anti-mouse IgG (Southern Biotech) was added to the plates and incubated for 2 h. The HRP-activity was visualized with TMB substrate reagents (Biolegend) and OD450-OD620 was measured by spectrophotometer (Bio-Rad).\nAnti-DNA IgG was measured by ELISA^19. […] Bound IgG was detected by HRP-conjugated anti-mouse IgG and TMB substrates as described above. […]\nDNA avidity index, [anti-DNA IgG]/[total IgG], represents proportion of DNA-binding IgG to total IgG in reference to the anti-DNA mAb. To compare DNA avidity indices of individual immature/T1 B cells from control- and chloroquine-treated 3H9 mice, culture supernatant samples that contain total IgG (range: 1-3 μg/ml) were analyzed. […]"}, "[3]": {"test_system": "2F5 dKI mice", "details": "2F5 dKI mice treated with chloroquine for one week"}, "[4]": {"test_system": "2F5 dKI mice", "test": "Spleen B-cell numbers and GC responses in 2F5 dKI mice after chloroquine, MPER liposome immunization and anti-CD25 Ab (FIG. 20)", "format": "in vivo"}, "[5]": {"test_system": "immature/T1 B cells", "test": "AID mRNA expression in cultured immature/T1 B cells (quantitative RT-PCR)", "format": "cell-based, mice", "protocol": "Twenty-four hours after culture, B cells were harvested in TRIzol-LS reagent for AID mRNA quantification.\nExpression of AID mRNA was determined by a quantitative RT-PCR^1. Briefly, sorted immature/T1 and mature follicular B cells were lysed in TRIzol LS before and after cultures. Total RNA was prepared from these cells using standard phenol/chloroform extraction method, and then cDNA was prepared using SuperScript III reverse transcriptase (Invitrogen) with oligo(dT)20 primers (Invitrogen). One-twentieth volume of cDNA samples were amplified in a primary PCR using Ramp-Taq DNA polymerase (Denville Scientific) with AID118 and AID119 primers^14. Primary PCR condition: initial incubation of 95° C. for 7 min followed by 15 cycles of amplification steps (95° C. for 30 s, 58° C. for 20 sec, and 72° C. for 45 sec.). Primary PCR products were then subjected to quantitative PCR using SYBR Green core reagents and AIDF2/AIDR2 primers^5."}, "[6]": {"test_system": "3H9 mice", "description": "Specific B-lineage developmental compartments were identified as described^1: CD43^+ B (pre-pro-B and pro-B; B220^lowCD93^+IgM^−IgD^−CD43^+), large pre-B (B220^lowCD93^+IgM^− IgD^−CD43^−FSC^high), small pre-B (B220^lowCD93^+IgM^−IgD^−CD43^−FSC^low), immature/T1 B (B220^lowCD93^+IgM^+IgD^+/−CD21^−CD23^−) and mature B (B220^hiCD93^−) cells in bone marrow, and splenic MF B (B220^hiCD93^−IgM^intIgD^hiCD21^intCD23^hi) cells of naïve mice, and germinal center B (GL-7^+B220^highFas^+IgD^−) cells in spleen of NP-CGG/alum immunized mice. Specific developmental compartments were designated for B6, and then identical gatings were used for all samples. Cells that take up propidium iodide were excluded from our analyses. Labeled cells were analyzed/sorted in a FACS Canto (BD Bioscience) or FACS Vantage with DIVA option (BD Bioscience). Flow cytometric data were analyzed with FlowJo software (Treestar Inc.)."}, "[7]": {"test_system": "human CD40 expressing HEK blue cells", "test": "HEK-Blue CD40L cells SEAP reporter assay of CD40L bioactivity", "format": "cell-based", "details": "liposome-conjugated vs non-conjugated", "description": "HEK-Blue CD40L cells (Invivogen) were used to measure the bioactivity of CD40L through the secretion of embryonic alkaline phosphatase (SEAP) upon NF-κB activation following CD40 stimulation."}, "[8]": {"details": "chloroquine-treated vs control 3H9 mice"}}, "note": "Entries after “also recorded” stand apart in the source; their conditions may differ.", "data": [{"molecule": "CCN(CC)CCCC(C)Nc1ccnc2cc(Cl)ccc12", "note": "(stereo not shown) [chloroquine]", "values": [{"measurement": "duration of suppression of humoral responses", "setting": "[1]", "value": "< 1", "unit": "week"}, {"measurement": "frequency of immature/T1 B cells with higher DNA avidity", "setting": "[2]; DNA avidity index 0.178 cut-off (average of control 3H9), chloroquine-treated 3H9 mice", "value": "increased"}, {"measurement": "average anti-DNA avidity indices of individual immature/T1 B cells", "setting": "[2]; [8]", "value": "significantly higher; also recorded: more avidly"}, {"measurement": "distribution of anti-DNA avidity indices", "setting": "[2]; [8]", "value": "shifted toward higher avidity cohorts"}, {"measurement": "splenic mature B-cell compartments", "setting": "[3]", "value": "increases"}, {"measurement": "absolute cell numbers of splenic transitional-1 (T1) and T2", "setting": "[4]; consecutive injections with chloroquine and MPER liposome, 14 days after last chloroquine injection, 12 days after immunization", "value": "increased"}, {"measurement": "tolerizing deletion of 2F5 dKI B cells", "setting": "[4]; injections of chloroquine", "value": "release"}, {"measurement": "GC responses", "setting": "[4]; vs controls (PBS+control IgG), after MPER liposome immunization", "value": "abolished"}, {"measurement": "AID expression in immature/T1 B cells elevated by CpG or CpG+anti-μ stimulation", "setting": "[5]; in the presence of 2.0 μg/ml of chloroquine, 24 h culture", "value": "abrogated"}, {"measurement": "synergistic AID up-regulation", "setting": "[5]; in vitro", "value": "blocked"}, {"measurement": "numbers of large- and small pre-B cells", "setting": "[6]; 3H9 mice, multiple i.p. injections of chloroquine for up to 8 days, bone marrow", "value": "decreased"}, {"measurement": "central B-cell tolerance", "setting": "[6]; mice treated with chloroquine", "value": "relaxed"}]}, {"molecule": "CCCCO", "note": "[n-butanol]", "values": [{"measurement": "AID expression in immature/T1 B cells stimulated with CpG", "setting": "[5]; addition of n-butanol (0.1, 0.3, 1.0%)", "value": "did not significantly change"}, {"measurement": "synergistic effects of CpG and anti-μ co-stimulation on AID expression in immature/T1 B cells", "setting": "[5]; n-butanol at 1.0%", "value": "completely abrogated"}, {"measurement": "synergistic effects of CpG and anti-μ co-stimulation on AID expression in immature/T1 B cells", "setting": "[5]; n-butanol, dose-dependent", "value": "suppressed"}]}, {"molecule": "B1", "values": [{"measurement": "effect of liposome conjugation on CD40 activation", "setting": "[7]", "value": "enhances"}]}]}
